Where a SMILES comes first, the peptide text is derived from it. [ ]: non-standard residue; d: D form. d2Nal = N[C@H](Cc1ccc2ccccc2c1)C(=O)O
Experiments:
A. baumannii (DSM 30007) = settings: A. baumannii, from MIC
Protocol: (§1) The peptides were assessed for their antibacterial activity by determining the minimum inhibitory concentration (MIC) using the two-fold serial dilution method following the National Committee of Clinical Laboratory Standards, as previously described. Gram-negative (Acinetobacter baumannii (DSM 30007), Escherichia coli (ATCC 8739), Enterobacter cloacae (DSM 30054), Helicobacter pylori (ATCC 43504), Klebsiella pneumoniae (DSM 26371), Pseudomonas aeruginosa (ATCC 9027)) and Gram-positive bacteria (Bacillus subtilis (ATCC 6633), Enterococcus faecalis (DSM 2570), Enterococcus faecium (DSM 20477), Staphylococcus aureus (ATCC 6538)) were used for the antibacterial activity assays. In brief, 3 mL of Mueller–Hinton (MH) broth was inoculated with single clusters of the various bacterial strains and incubated overnight at 37 °C with agitation at 200 rpm. The next day, the bacterial solution was diluted with sterile MH by 1/100 and further incubated at 37 °C and 200 rpm until the bacteria reached the log phase growth (OD600nm around 0.6). The bacterial suspension was then adjusted to a density of approximately 10^5 bacteria/mL, and 100 μL was added per well of 96-well microplates (Greiner BioOne, Les Ulis, France), followed by exposure to increasing concentrations of peptides (from 0 to 100 µM, 1:2 dilution). Plates were then incubated at 37 °C for 18-24 h under either aerobic (for A. baumannii, E. cloacae, E. coli, P. aeruginosa, B. subtilis, and S. aureus) or micro-aerobic conditions generated using GasPak units (for E. faecalis, E. faecium and, H. pylori). […] The optical density (OD) at 600nm was measured using a microplate reader (Biotek, Synergy Mx, Les Ulis, France) after the final incubation. All experiments were performed in triplicate (n = 3).

E. cloacae (DSM 30054) = system: E. cloacae (DSM 30054)
Protocol: as §1

E. coli (ATCC 8739) = settings: E. coli, from MIC
Protocol: as §1

E. faecalis (DSM 2570) = system: E. faecalis (DSM 2570)
Protocol: as §1

E. faecium (DSM 20477) = settings: E. faecium, from MIC
Protocol: as §1

K. pneumonia (DSM 26371) = settings: K. pneumonia, from MIC
Protocol: as §1

[1] = system: P. aeruginosa (ATCC 9027); settings: P. aeruginosa, from MIC
Protocol: as §1

Breast Cancer (MCF-7) = format: cell-based, human; settings: 48 h
Protocol: (§2) The antiproliferative activity of the peptides was evaluated, as previously described using human cancer cell lines (A549 (lung), A2780 (ovary), HepG-2 (liver), MCF-7 (breast), MiaPaCa-2 (pancreas), MNT-1 (skin), and PC-3 (prostate)) and normal human lung fibroblasts (IMR-90) or epithelial cells (BEAS-2B). The cells were cultured in DMEM supplemented with 10% FBS, 1% L-glutamine, and 1% antibiotics at 37 °C in a 5% CO2 incubator. For the antiproliferative assay, cells were seeded in 96-well plates at approximately 3000 cells/well. Twenty-four hours later, cells were treated with increasing concentrations of peptides (1:2 serial dilution from 100 µM to 0 µM) for 48 h. After treatment, the number of viable cells was determined using a resazurin-based assay, and the fluorescence intensity was measured with a microplate reader (Ex 530 nm/Em 590 nm). The IC50 values of the peptides (i.e., the concentrations causing 50% inhibition of cell proliferation) were determined using GraphPad® Prism 7 software. The experiments were performed in triplicate (n = 3). The cytotoxicity of the peptides was also evaluated using confluent/no-dividing cells, as previously described. Briefly, human cells were seeded onto 96-well plates at 20,000 cells/well. When they reached 80–90% confluence (after 24–48 h), cells were treated with escalating concentrations of peptides. After 48h incubation, cell viability was measured using a resazurin assay and CC50 (i.e., the concentrations causing 50% inhibition of cell viability) and determined using GraphPad® Prism 7 software. The experiments were performed in triplicate (n = 3).

Liver Cancer (HepG-2) = format: cell-based, human; settings: 48 h
Protocol: as §2

Lung Cancer (A549) = format: cell-based, human; settings: 48 h
Protocol: as §2

[2] = system: Normal Lung Fibroblast (IMR-90); format: cell-based, human; settings: 48 h
Protocol: as §2

Ovarian Cancer (A2780) = format: cell-based, human; settings: 48 h
Protocol: as §2

[3] = system: Pancreatic Cancer (MiaPaCa-2); format: cell-based, human; settings: 48 h
Protocol: as §2

Prostate Cancer (PC-3) = format: cell-based, human; settings: 48 h
Protocol: as §2

Skin Cancer (MNT-1) = format: cell-based, human; settings: 48 h
Protocol: as §2

[4] = Circular dichroism, secondary structure (Bestsel); format: physicochemical; settings: CD in 20 mM SDS
Protocol: Circular dichroism of temporin SHa, [G10a]-SHa and newly synthesised second-generation analogs of [G10a]-SHa in 20 mM SDS are shown in Figure 2. In lipidic environments mimicked by SDS, peptides adopt an alpha helical structure due to their amphipathic nature. This structural feature is important for their antimicrobial activity, allowing for their insertion into bacterial membranes. The hydrophobic region of the peptide interacts with the hydrophobic portion of the lipid while the hydrophilic region remains exposed to the aqueous environment. The percentage of alpha helix, as well as the percentage of other secondary structures, was determined from CD data using Bestsel software (https://bestsel.elte.hu/index.php, (accessed on 22 June 2024)) (Table 3). Temporin-SHa (1) adopted a 49.5% α-helical structure, while its first-generation analog [G10a]-SHa (2) acquired a 82.4% alpha helical structure. The 84.6%, 88.7%, 4.7%, and 53.8% alpha helical structures were acquired for second-generation analogs 3, 4, 5, and 6, respectively.
The far-ultraviolet CD spectra were obtained using a JASCO J-810 spectropolarimeter (Jasco, Tokyo, Japan). In addition to this, the quartz cuvette of 10 mm path length was used. The temperature was maintained at 22 °C, and the output of the instrument was calibrated using D-(+)-10-camphorsulfonic acid. The peptides, which were present at a concentration of 1.0 mg/mL, were dissolved completely in 20 mM SDS at a concentration of 15 µM [21]. The instrument was set to record wavelengths ranging from 190 to 260 nm with a bandwidth of 2 nm. Ten consecutive scans (accumulations) were recorded for each spectrum at a rate of 50 nm/min, and the baseline was acquired under the same conditions.

[5] = system: Normal Lung Epithelium (BEAS-2B); format: cell-based, human; settings: 48 h
Protocol: as §2

[6] = system: Gram-negative and Gram-positive bacterial strains
Protocol: as §1

[7] = system: human cancer and normal/non-cancerous cells; format: cell-based; settings: tested human cells, up to 100 µM
Protocol: as §2

Row | SMILES | fold activity compared to [G10a]-SHa (2) (E. faecium (DSM 20477)) | IC50 (Breast Cancer (MCF-7)) [µM] | IC50 (Liver Cancer (HepG-2)) [µM] | IC50 (Lung Cancer (A549)) [µM] | IC50 [2] [µM] | IC50 (Ovarian Cancer (A2780)) [µM] | IC50 [3] [µM] | IC50 (Prostate Cancer (PC-3)) [µM] | IC50 (Skin Cancer (MNT-1)) [µM] | Antiparallel [4] [%] | Helix (alpha helical structure) [4] [%] | Others [4] [%] | Parallel [4] [%] | Turn [4] [%] | IC50 [5] [µM] | also measured
1 | CC[C@H](C)[C@H](NC(=O)CNC(=O)[C@H](CO)NC(=O)[C@H](CC(C)C)NC(=O)[C@@H](N)Cc1ccccc1)C(=O)N[C@H](C(=O)NCC(=O)N[C@@H](CCSC)C(=O)N[C@@H](CC(C)C)C(=O)N[C@@H](CCCCN)C(=O)N[C@@H](CCCCN)C(=O)N[C@@H](CC(C)C)C(=O)N[C@@H](Cc1ccccc1)C(N)=O)C(C)C [[G10K]-SHa (4), H-Phe^1-Leu^2-Ser^3-Gly^4-IIe^5-Val^6-Gly^7-Met^8-Leu^9-L-Lys^10-Lys^11-Leu^12-Phe^13-NH2] (H-FLSGIVGMLKKLF-NH2) | at least 16 | 37.4 ± 11.8 | 64.3 ± 3.5 | 32.6 ± 2.4 | > 100 | 21.8 ± 3.2 | 61.4 ± 4.1 | 11.7 ± 1.2 | 21.7 ± 6.9 | 11.30 | 88.70 | 0.00 | 0.00 | 0.00 | – | fold activity compared to [G10a]-SHa (2) (A. baumannii (DSM 30007)): at least four times more active; fold activity compared to [G10a]-SHa (2) (E. cloacae (DSM 30054); E. cloacae, from MIC): about eight times more active; fold increase in activity relative to the parent peptide (1) (E. cloacae (DSM 30054); Enterobacter cloacae DSM 30054, from MIC): 4; fold activity compared to [G10a]-SHa (2) (E. coli (ATCC 8739)): at least four times more active; fold increase in activity relative to the parent peptide (1) (E. faecalis (DSM 2570); Enterococcus faecalis DSM 2570, from MIC): 4; fold activity compared to [G10a]-SHa (2) (K. pneumonia (DSM 26371)): at least four times more active; fold activity compared to [G10a]-SHa (2) [1]: at least four times more active; Helix (alpha helical structure) ([4]; listed as 4): 88.7%
2 | CC[C@H](C)[C@H](NC(=O)CNC(=O)[C@H](CO)NC(=O)[C@H](CC(C)C)NC(=O)[C@@H](N)Cc1ccccc1)C(=O)N[C@H](C(=O)NCC(=O)N[C@@H](CCSC)C(=O)N[C@@H](CC(C)C)C(=O)N[C@H](Cc1ccccc1)C(=O)N[C@@H](CCCCN)C(=O)N[C@@H](CC(C)C)C(=O)N[C@@H](Cc1ccccc1)C(N)=O)C(C)C [[G10f]-SHa (3), H-Phe^1-Leu^2-Ser^3-Gly^4-IIe^5-Val^6-Gly^7-Met^8-Leu^9-D-Phe^10-Lys^11-Leu^12-Phe^13-NH2] (H-FLSGIVGML[dF]KLF-NH2) | 32 | 4.4 ± 1.3 | 19.8 ± 1.7 | 3.6 ± 0.7 | 14.2 ± 0.6 | 6.6 ± 0.5 | 6.8 ± 0.4 | 4.9 ± 0.3 | 5.5 ± 0.4 | 15.40 | 84.60 | 0.00 | 0.00 | 0.00 | 7.8 ± 0.3 | Helix (alpha helical structure) ([4]; listed as 3): 84.6%
3 | CC[C@H](C)[C@H](NC(=O)CNC(=O)[C@H](CO)NC(=O)[C@H](CC(C)C)NC(=O)[C@@H](N)Cc1ccccc1)C(=O)N[C@H](C(=O)NCC(=O)N[C@@H](CCSC)C(=O)N[C@@H](CC(C)C)C(=O)N[C@H](Cc1ccc2ccccc2c1)C(=O)N[C@@H](CCCCN)C(=O)N[C@@H](CC(C)C)C(=O)N[C@@H](Cc1ccccc1)C(N)=O)C(C)C [[G10n]-SHa (5), H-Phe^1-Leu^2-Ser^3-Gly^4-IIe^5-Val^6-Gly^7-Met^8-Leu^9-D-NAL^10-Lys^11-Leu^12-Phe^13-NH2] (H-FLSGIVGML[d2Nal]KLF-NH2) | – | > 100 | > 100 | > 100 | > 100 | > 100 | > 100 | > 100 | > 100 | 34.10 | 4.70 | 47.20 | 1.10 | 12.90 | > 100 | MIC values, range over strains [6]: 50 to 100 µM; activity against the tested human cells [7]: inactive; Helix (alpha helical structure) ([4]; listed as 5): 4.7%
4 | CC[C@H](C)[C@H](NC(=O)CNC(=O)[C@H](CO)NC(=O)[C@H](CC(C)C)NC(=O)[C@@H](N)Cc1ccccc1)C(=O)N[C@H](C(=O)NCC(=O)N[C@@H](CCSC)C(=O)N[C@@H](CC(C)C)C(=O)N[C@H](Cc1ccc(O)cc1)C(=O)N[C@@H](CCCCN)C(=O)N[C@@H](CC(C)C)C(=O)N[C@@H](Cc1ccccc1)C(N)=O)C(C)C [[G10y]-SHa (6), H-Phe^1-Leu^2-Ser^3-Gly^4-IIe^5-Val^6-Gly^7-Met^8-Leu^9-D-Tyr^10-Lys^11-Leu^12-Phe^13-NH2] (H-FLSGIVGML[dY]KLF-NH2) | at least eight times more activity | 13.1 ± 3.6 | 40.3 ± 7.2 | – | – | 23.2 ± 3.1 | 23.9 ± 3.9 | 19.3 ± 1.2 | 44.1 ± 8.1 | 15.10 | 53.80 | 0.00 | 31.10 | 0.00 | – | fold activity compared to [G10a]-SHa (2) (E. faecalis (DSM 2570); E. faecalis, from MIC): twice the activity; Helix (alpha helical structure) ([4]; listed as 6): 53.8%

Source: PMC11350846, “Synthesis of Second-Generation Analogs of Temporin-SHa Peptide Having Broad-Spectrum Antibacterial and Anticancer Effects” (Antibiotics, 2024)
